{
  "source": "patent US9718738B2",
  "about": "(priority 2014, dated 2017)",
  "key": {"[1]": {"test_system": "long white bunching onions", "conditions": "in vivo"}, "[2]": {"test_system": "grain corn", "conditions": "in vivo"}},
  "data": [
    {"substance": "urea", "values": [
      {"measurement": "plant height after 6 weeks", "setting": "[1]", "result": "performing poorer than no nitrogen fertilizer at all"},
      {"measurement": "grain yield", "setting": "[2]", "result": 180.5, "unit": "bu/acre"}
    ]}
  ]
}
